Structures can show the parent of a compound that is named as a salt. Where two headings read alike, the source gives them in different places.
Key:
[1] = molecular target: T1, type II dehydroquinase from Helicobacter pylori (Helicobacter pylori, UniProt Q48255); assay: Inhibition of type II dehydroquinase from Helicobacter pylori (Ki); format: biochemical
T1 sequence (Q48255 1-167): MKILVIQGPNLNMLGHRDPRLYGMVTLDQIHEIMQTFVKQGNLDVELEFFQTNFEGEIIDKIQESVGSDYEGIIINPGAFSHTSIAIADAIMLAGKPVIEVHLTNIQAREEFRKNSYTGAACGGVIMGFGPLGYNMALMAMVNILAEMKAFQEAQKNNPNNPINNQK
Experimental: (§1) Effect of compounds of formula I of the invention on the catalytic activity of the type II dehydroquinase from various sources. The inhibitory potency of compounds I of the invention against type II dehydroquinases from Mycobacterium tuberculoris, Streptomyces coelicolor and Helicobacter pylori were assayed as it is described in the following articles: 1) Sanchez-Sixto, C.; Prazeres, V. F. V.; Castedo, L.; Lamb, H.; Hawkins, A. R.; Gonzalez-Bello, C. J. Med. Chem. 2005, 48, 4871; 2) Prazeres, V. F. V.; Sanchez-Sixto, C.; Castedo, L.; Lamb, H.; Hawkins, A. R.; Riboldi-Tunnicliffe; Coggins, J. R.; Lapthorn, A. J.; González-Bello, C. Chem Med Chem 2007, 2, 194; and 3) Sanchez-Sixto, C.; Prazeres, V. F. V.; Castedo, L.; S. W. Suh, Lamb, H.; Hawkins, A. R.; Canada, F. J.; Jiménez-Barbero, J.; González-Bello, C. Chem Med Chem 2008, 3, 756.

[2] = molecular target: type II dehydroquinase from Streptomyces coelicolor (Streptomyces coelicolor, UniProt P15474); assay: Inhibition of type II dehydroquinase from Streptomyces coelicolor (Ki); format: biochemical
Experimental: as §1

[3] = molecular target: type II dehydroquinase from Mycobacterium tuberculosis (Mycobacterium tuberculosis, UniProt P9WPX7); assay: biochemical
Experimental: as §1

[4] = pH = 7.0, 25° C., 50 mM Tris•HCl, read-out: Inhibition constants Ki, H. pylori
[5] = Inhibition constants Ki, S. coelicolor, pH = 7.0, 25° C., 50 mM Tris•HCl
[6] = Inhibition constants Ki, M. tuberculosis, pH = 7.0, 25° C., 50 mM Tris•HOAc
[7] = inhibition constants against Mycobacterium tuberculosis
[8] = pH = 7.0, 25° C., 50 mM Tris•HOAc, read-out: Inhibition constants Ki, M. tuberculosis
[9] = pH = 7.0, 25° C., 50 mM Tris•HCl, read-out: Inhibition constants Ki, S. coelicolor
[10] = Inhibition constants Ki, H. pylori, pH = 7.0, 25° C., 50 mM Tris•HCl

Sequence of type II dehydroquinase from Mycobacterium tuberculosis (P9WPX7 whole entry): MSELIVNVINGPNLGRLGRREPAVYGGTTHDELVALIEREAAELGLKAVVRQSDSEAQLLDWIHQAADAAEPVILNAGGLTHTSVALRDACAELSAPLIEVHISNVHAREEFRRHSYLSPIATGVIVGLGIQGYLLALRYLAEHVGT
Sequence of type II dehydroquinase from Streptomyces coelicolor (P15474 whole entry): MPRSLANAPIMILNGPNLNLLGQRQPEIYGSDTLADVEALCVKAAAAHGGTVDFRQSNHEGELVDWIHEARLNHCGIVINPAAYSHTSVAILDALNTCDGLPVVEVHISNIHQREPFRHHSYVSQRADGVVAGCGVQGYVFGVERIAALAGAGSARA

Compound	Ki [1, 4]	Ki [2, 5]	Ki [2, 9]	further results
C/C=C/c1cc2c(s1)[C@@H](OC(C)=O)[C@H](OC(C)=O)C[C@]2(OC(C)=O)C(=O)OC	–	–	–	melting point: 140 to 143 °C
CCOC(=O)[C@@]1(O)C[C@@H](O)[C@H](O)c2sc(CCc3ccccc3)cc21	–	–	–	melting point: 118 to 120 °C
COC(=O)[C@@]1(O)C[C@@H](O)[C@H](O)c2sc(C)cc21	–	–	–	melting point: 87 to 92 °C
CC(C)c1cc2c(s1)[C@@H](O)[C@H](O)C[C@]2(O)C(=O)O	–	–	–	melting point: 125 to 127 °C
O=C(O)[C@@]1(O)C[C@@H](O)[C@H](O)C(OCc2cccs2)=C1Cc1cccs1 (as salt: sodium) (hydrate or solvate) [Ib-8]	–	–	–	melting point: 178 to 181 °C
O=C(O)[C@]1(O)C=C(OCc2ccc3ccccc3c2)[C@@H](O)[C@H](O)C1 (as salt: sodium) (hydrate or solvate) [Ib-.10, Sodium (1R,4S,5R)-1,4-trihydroxy-3-(2-naphyl)methoxycyclohex-2-en-1-carboxylate]	–	–	–	melting point: 54 °C (dec.)
C=CC[C@H]1C(=O)[C@@H](O)[C@H](O)C[C@]1(O)C(=O)O (hydrate or solvate) [(2R)-Ia-1, (2R)-2-allyl-3-dehydroquinic acid]	–	–	–	melting point: 144 to 148 °C
C=CC[C@@H]1C(=O)[C@@H](O)[C@H](O)C[C@]1(O)C(=O)O (hydrate or solvate) [(2S)-Ia-1, (2S)-2-allyl-3-dehydroquinic acid]	–	–	–	melting point: 127 to 130 °C
Cc1ccc(CC2C(=O)C(O)C(O)CC2(O)C(=O)O)cc1 (single isomer, unassigned) [(2R)-Ia-4]	250 nM	22 nM	–	Ki [3, 6]: 89 nM
COc1ccc(CC2C(=O)C(O)C(O)CC2(O)C(=O)O)cc1 (single isomer, unassigned) [(2R)-Ia-5]	170 nM	34 nM	–	times more effective than 2,3-dehydroquinic acid, M. tuberculosis ([3]; Ki ratio): 8000 times; times more affinity with respect of the natural substrate, M. tuberculosis ([3]; Km of substrate / Ki): 1600 times; Ki [3, 7]: 25 nM
O=C1C(O)C(O)CC(O)(C(=O)O)C1Cc1c(F)c(F)c(F)c(F)c1F (single isomer, unassigned) [(2R)-Ia-6]	2600 nM	242 nM	–	Ki [3, 6]: 47 nM
O=C1C(O)C(O)CC(O)(C(=O)O)C1Cc1ccc2sccc2c1 (single isomer, unassigned) [(2R)-Ia-7]	160 nM	4 nM	–	Ki [3, 6]: 29 nM
O=C1C(O)C(O)CC(O)(C(=O)O)C1Cc1c(F)c(F)c(F)c(F)c1F (single isomer, unassigned) [(2S)-Ia-6]	–	6.5 nM	–	Ki [3, 6]: 74 nM
C=CC[C@H]1C(=O)[C@@H](O)[C@H](O)C[C@]1(O)C(=O)O [(2R)-Ia-1, (2R)-2-allyl-3-dehydroquinic acid]	9400 nM	10200 nM	–	Ki [3, 8]: 760 nM
CCCC1C(=O)C(O)C(O)CC1(O)C(=O)O [(2R)-Ia-2, (2R)-2-propyl-3-dehydroquinic acid]	20000 nM	76000 nM	–	Ki [3, 8]: 1700 nM
C=CC[C@@H]1C(=O)[C@@H](O)[C@H](O)C[C@]1(O)C(=O)O [(2S)-Ia-1, (2S)-2-allyl-3-dehydroquinic acid]	21500 nM	6700 nM	–	Ki [3, 8]: 1850 nM
O=C(O)[C@]1(O)C=C(OCc2cc3ccccc3s2)[C@@H](O)[C@H](O)C1 [Ib-1, Sodium (1R, 4S, 5R)-3-(benzo[b]thiophen-2-yl)methoxy-1,4,5-trihydroxycyclohex-2-en-1-carboxylate]	160 nM	–	0.48 nM	Ki ([2]; read-out: affinities in the case of S. coelicolor): 0.48 nM; Ki [3, 7]: 3.2 nM

Compound	Ki [1, 4]	Ki [2, 5]	Ki [2, 9]	further results
O=C(O)C1(O)CC(O)C(O)C(OCc2cc3ccccc3s2)=C1Cc1cc2ccccc2s1 (centres unmarked) [Ib-2]	140 nM	2.8 nM	–	Ki [3, 6]: 4.25 nM
Cc1ccc2sc(COC3=C[C@@](O)(C(=O)O)C[C@@H](O)[C@@H]3O)cc2c1 [Ib-3, Sodium (1R, 4S, 5R)-1,4,5-trihydroxy-3-(5-methylbenzo[b]thiophen-2-yl)methoxycyclohex-2-en-1-carboxylate]	97 nM	2.4 nM	–	Ki [3, 6]: 40 nM
Cc1ccc2sc(COC3=C(Cc4cc5cc(C)ccc5s4)[C@@](O)(C(=O)O)C[C@@H](O)[C@@H]3O)cc2c1 [Ib-4, Sodium (1R, 4S, 5R)-1,4,5-trihydroxy-3-(5-methylbenzo[b]thiophen-2-yl)methoxy-2-(5-methylbenzo[b]thiophen-2-yl)methylcyclohex-2-en-1-carboxylate]	70 nM	13 nM	–	Ki [3, 8]: 190 nM
C=CCC1=C(OCc2cc3ccccc3s2)[C@@H](O)[C@H](O)C[C@]1(O)C(=O)O [Ib-5, Sodium (1R, 4S, 5R)-2-allyl-3-(benzo[b]thiophen-2-yl)methoxy-1,4,5-tri-hydroxycyclohex-2-en-1-carboxylate]	1100 nM	15 nM	–	Ki [3, 8]: 1240 nM
O=C(O)[C@]1(O)C=C(OCc2ccc3sccc3c2)[C@@H](O)[C@H](O)C1 [Ib-7, Sodium (1R,4S,5R)-1,4,5-trihydroxy-3[(benzo[b]thiophen-5-yl)methoxy]cyclohex-2-en-1-carboxylate]	166 nM	0.3 nM	–	Ki [3, 8]: 31 nM
O=C(O)[C@@]1(O)C[C@@H](O)[C@H](O)C(OCc2cccs2)=C1Cc1cccs1 [Ib-8]	15000 nM	–	140 nM	–
O=C(O)[C@@]1(O)C[C@@H](O)[C@H](O)C(OCc2ccc3ccccc3c2)=C1Cc1ccc2ccccc2c1 [Ib-11, Sodium (1R,4S,5R)-1,4,5-trihydroxy-3-(naphth-2-yl)methoxy-2-(naphth-2-yl)methylcyclohex-2-en-1-carboxylate]	–	–	32 nM	–
O=C(O)[C@@]1(O)C[C@@H](O)[C@H](O)C(OCc2cccs2)=C1Cc1cc2ccccc2s1 [Ib-12, Sodium (1R,4S,5R)-1,4,5-trihydroxy-3-(thien-2-yl)methoxy-2-(benzo[b]thiophen-2-yl)methylcyclohex-2-en-1-carboxylate]	46 nM	279 nM	–	–
O=C([O-])[C@@]1(O)C[C@@H](O)[C@H](O)C(OCc2ccc3sccc3c2)=C1Cc1cccs1.[Na+] [Ib-13, Sodium (1R,4S,5R)-1,4,5-trihydroxy-3-(benzo[b]thiophen-5-yl)methoxy-2-(thien-2-yl)methylcyclohex-2-en-1-carboxylate]	–	280 nM	–	times more effective than the 2,3-dehydroquinic acid, H. pylori ([1]; Ki ratio): 16.190 times; times more affinity with respect of the natural substrate, H. pylori ([1]; Km of substrate / Ki): about 21.000 times; Ki ([1]; read-out: affinities in the case of H. pylori): 21 nM
O=C(O)[C@]1(O)C=C(OCc2ccc3ccccc3c2)[C@@H](O)[C@H](O)C1 [Ib-.10, Sodium (1R,4S,5R)-1,4-trihydroxy-3-(2-naphyl)methoxycyclohex-2-en-1-carboxylate]	–	–	< 0.26 nM	–
Cc1cc2c(s1)[C@@H](O)[C@H](O)C[C@]2(O)C(=O)O [Ic-2, (4R, 6R, 7S)-4,6,7-trihydroxy-2-methyl-4,5,6,7-tetrahydrobenzo[b]thiophen-4-carboxylic acid]	–	–	3150 nM	Ki [1, 10]: 1600 nM; Ki [3, 6]: 400 nM
C=Cc1cc2c(s1)[C@@H](O)[C@H](O)C[C@]2(O)C(=O)O [Ic-3, (4R, 6R, 7S)-4,6,7-trihydroxy-2-vinyl-4,5,6,7-tetrahydrobenzo[b]thiophen-4-carboxylic acid]	–	–	810 nM	Ki [1, 10]: 1250 nM; Ki [3, 6]: 52 nM
C/C=C/c1cc2c(s1)[C@@H](O)[C@H](O)C[C@]2(O)C(=O)O [Ic-4, (4R, 6R, 7S)-4,6,7-trihydroxy-2-[(E)-prop-1-enyl]-4,5,6,7-tetrahydrobenzo[b]thiophen-4-carboxylic acid]	–	–	93 nM	Ki [1, 10]: 350 nM; Ki [3, 6]: 97 nM
C=C(C)c1cc2c(s1)[C@@H](O)[C@H](O)C[C@]2(O)C(=O)O [Ic-5]	–	–	1880 nM	Ki [1, 10]: 38000 nM; Ki [3, 6]: 860 nM
C=C(c1ccccc1)c1cc2c(s1)[C@@H](O)[C@H](O)C[C@]2(O)C(=O)O [Ic-10, (4R,6R,7S)-4,6,7-trihydroxy-2-(1-phenylvinyl)-4,5,6,7-tetrahydro-benzo[b]thiophen-4-carboxylic acid]	–	–	4650 nM	Ki [1, 10]: 20500 nM
O=C(O)[C@@]1(O)C[C@@H](O)[C@H](O)c2sc(CCc3ccccc3)cc21 [Ic-12, (4R,6R,7S)-4,6,7-trihydroxy-2-phenethyl-4,5,6,7-tetrahydrobenzo[b]thiophene-4-carboxylic acid]	–	–	46 nM	Ki [1, 10]: 1700 nM
CCCc1cc2c(s1)[C@@H](O)[C@H](O)C[C@]2(O)C(=O)O [Ic-13, (4R,6R,7S)-4,6,7-trihydroxy-2-propyl-4,5,6,7-tetrahyclrobenzo[b]thiophene-4-carboxylic acid]	–	–	22 nM	Ki [1, 10]: 120 nM
